{"source": "patent US11925653B2", "about": "“Combination therapy effective against microorganisms, including drug resistant microorganisms” (Fleurir ABX LLC, priority 2021, dated 2024)", "key": {"Enterococcus faecalis [1]": {"test_system": "Enterococcus faecalis", "test": "MIC and synergy checkerboard assay, broth microdilution", "assay_type": "cell-based"}, "P. mirabilis": {"test_system": "P. mirabilis", "test": "MIC and synergy checkerboard assay, broth microdilution (uUTI species)", "assay_type": "cell-based, Proteus mirabilis", "method": "(§1) Minimum inhibitory concentration (MIC) assays were performed in a manner as described for the CLSI Agar dilution or broth microdilution assay guideline (see, Clinical Laboratory Standards Institute, 2009, Methods for Dilution Antimicrobial Susceptibility Tests for Bacteria That Grow Aerobically; Approved Standard, Eighth Edition, M07-A8, Vol. 29, No. 2). For example, known antibiotics or the compositions described herein were dissolved, serially diluted, and then added to tempered molten Mueller-Hinton Agar before pouring of plates; or were dissolved, and then serially diluted in 100 μL cation-adjusted Mueller-Hinton broth across the assay plate in the classical 2-fold geometric format. D-glucose-6-phosphate was included as a medium supplement in both agar, and broth at a concentration of 50 mg/L. Antibiotic concentrations for agar assay were at the final concentration. Antibiotic concentrations for broth microdilution in each well at this point were double what the final assay concentration would be. Bacterial inocula were prepared by swabbing several colonies from a fresh agar plate, and re-suspending the bacteria to a density that was the 0.5 McFarland turbidity standard, considered close or equivalent to 1×10^8 CFU/mL. For agar dilution, a steers replicator was utilized to deliver 1×10^4 CFU/spot. For broth microdilution, the bacterial inocula were diluted in the cation-adjusted Mueller-Hinton broth to 1×10^6 CFU/mL, and 100 μL was overlayered onto the wells containing a diluted antibiotic or a composition described. Following incubation as per the guideline, results were recorded as growth or no growth, and the lowest concentration of the antibiotic or the composition described where no growth was observed was declared the MIC.\nTo assay for synergy of antibacterial combinations, a recognized synergy checkerboard assay, adapted from the CLSI guideline microdilution assay, was utilized (see Eliopoulos, G. M., and Moellering, R. C, Jr., 1996. Antimicrobial Combinations, pg. 330-396. In: Lorian, V. (Ed.), Antibiotics in Laboratory Medicine, 4th Ed., Williams & Wilkins; Baltimore, MD). In the case of the agar dilution method, each antibiotic alone, or in combination was added to agar prior to plate pouring. For broth microdilution, the first compound (or antibiotic or agent) was diluted in cation-adjusted Mueller-Hinton broth across the plate along the horizontal axis with each well in a row containing 50 μL of an identical concentration of compound (or antibiotic). Along the vertical axis a dilution series of the second compound (or antibiotic) was dispensed. At this point the drug concentrations are four-fold of the final desired working concentration. […] Following incubation, wells with no growth are noted. […]"}, "N. gonorrhoeae": {"test_system": "N. gonorrhoeae", "test": "MIC and synergy checkerboard assay, agar dilution on GC agar", "assay_type": "cell-based", "method": "as §1\nTo assay for synergy of antibacterial combinations, a recognized synergy checkerboard assay, adapted from the CLSI guideline microdilution assay, was utilized (see Eliopoulos, G. M., and Moellering, R. C, Jr., 1996. Antimicrobial Combinations, pg. 330-396. In: Lorian, V. (Ed.), Antibiotics in Laboratory Medicine, 4th Ed., Williams & Wilkins; Baltimore, MD). In the case of the agar dilution method, each antibiotic alone, or in combination was added to agar prior to plate pouring. For broth microdilution, the first compound (or antibiotic or agent) was diluted in cation-adjusted Mueller-Hinton broth across the plate along the horizontal axis with each well in a row containing 50 μL of an identical concentration of compound (or antibiotic). Along the vertical axis a dilution series of the second compound (or antibiotic) was dispensed. At this point the drug concentrations are four-fold of the final desired working concentration. […] Following incubation, wells with no growth are noted. […] FIC=(MIC-A combination/MIC-A alone)+(MIC-B combination/MIC-B alone).\nIn the above, FIC: Synergy=FIC<0.5; Additive=FIC>0.5-1; Indifferent=FIC>1-2; Antagonism=FIC>2-4.\nSynergy is also identified in TABLE 9 (utilizing the agar checkerboard assay) against N. gonorrhoeae. In these analyses, the agar dilution was performed utilizing GC agar supplemented with Isovitalex, and 50 mg/L of D-glucose-6-phosphate. […] MIC comparator data was performed using the following known antibiotics: Ceftriaxone, Azithromycin, Cefixime, Ciprofloxacin, Tetracycline, Pristinamycin, Solithromycin, and Delafloxacin. Pristinamycin was purified from capsules obtained in France; Solithromycin, and Delafloxacin were synthesized internally for comparison."}, "Enterococcus faecalis [2]": {"test_system": "Enterococcus faecalis", "test": "minimum bactericidal concentration (MBC) assay", "assay_type": "cell-based", "method": "(§2) Synergy was also assayed by both agar, and broth microdilution methods. Additional information gathered about the synergistic effect of the described composition as a combination therapy was evaluated by determining bacterial killing effect. This was performed as described above for the checkerboard synergy assay with the exception that the bacterial count in an assay well was determined by plating at the beginning of the experiment, and identifying at the end of incubation for an assay well where growth was inhibited. This has been adapted from both the broth microdilution, and the bactericidal assays (Clinical Laboratory Standards Institute (1999) Methods for Determining Bactericidal Activity of Antimicrobial Agents; Approved Guideline M26-A, Vol. 19, No. 18). […] The value derived was the reduction in bacterial numbers (viability) for the compounds when alone versus the described composition comprising the combined antibiotics.\n(§3) As there is no published definition for bactericidal synergy, MIC metric was utilized."}, "Escherichia coli": {"test_system": "Escherichia coli", "test": "minimum bactericidal concentration (MBC) assay", "assay_type": "cell-based", "method": "as §2, §3"}, "Pseudomonas aeruginosa": {"test_system": "Pseudomonas aeruginosa", "test": "minimum bactericidal concentration (MBC) assay", "assay_type": "cell-based", "method": "as §2, §3"}, "Staphylococcus aureus": {"test_system": "Staphylococcus aureus", "test": "minimum bactericidal concentration (MBC) assay", "assay_type": "cell-based", "method": "as §2, §3"}, "bacteria": {"test_system": "bacteria", "test": "spontaneous mutational frequency (SMF; resistance)", "assay_type": "cell-based", "conditions": "resistant colonies observed divided by total inoculum; plates with 4-fold MIC of the combination or 2-fold MIC of each antibiotic alone", "method": "MIC was further evaluated to confirm resistance, and the spontaneous mutational frequency was calculated based on the following equation: […]\nThe spontaneous mutational frequency (SMF; resistance) was calculated as the number of resistant colonies observed divided by the total inoculum."}, "E. coli": {"test_system": "E. coli", "conditions": "cited from earlier work"}, "susceptible bacteria": {"test_system": "susceptible bacteria", "conditions": "susceptible strains of Escherichia coli and Enterococcus faecalis; cited from earlier work"}, "[3]": {"conditions": "Enterococcus faecalis (ATCC 29212)"}, "[4]": {"conditions": "Enterococcus faecalis (MGH-01) (VanA)"}}, "note": "Marks after values point to notes of the source that are not given here."}
{"smiles": "C[C@@H]1O[C@@H]1P(=O)(O)O", "note": "[Fosfomycin, cis-1,2-epoxypropyl phosphonic acid]", "values": [{"measurement": "MIC (Combo as F/DP/SM; second compound as DP/SM)", "setting": "Enterococcus faecalis [1]; E. faecalis 1082155", "result": 32, "unit": "µg/mL"}, {"measurement": "MIC (Combo as F/DP/SM; second compound as DP/SM)", "setting": "Enterococcus faecalis [1]; E. faecalis 1120278", "result": 64, "unit": "µg/mL"}, {"measurement": "MIC (Combo as F/DP/SM; second compound as DP/SM)", "setting": "Enterococcus faecalis [1]; E. faecalis 1129099", "result": 4, "unit": "µg/mL"}, {"measurement": "MIC (Combo as F/DP/SM; second compound as DP/SM)", "setting": "Enterococcus faecalis [1]; E. faecalis 1175598", "result": 32, "unit": "µg/mL"}, {"measurement": "MIC (Combo as F/DP/SM; second compound as DP/SM)", "setting": "Enterococcus faecalis [1]; E. faecalis 10864321", "result": 32, "unit": "µg/mL"}, {"measurement": "MIC (Combo as F/DP/SM; second compound as DP/SM)", "setting": "Enterococcus faecalis [1]; [3]", "result": 64, "unit": "µg/mL"}, {"measurement": "MIC (Combo as F/DP/SM; second compound as DP/SM)", "setting": "Enterococcus faecalis [1]; [4]", "result": "256* μg/ml"}, {"measurement": "MIC (Combo as F/DP/SM; second compound as DP/SM)", "setting": "Enterococcus faecalis [1]; Enterococcus faecalis (MGH-06)", "result": "128* μg/ml"}, {"measurement": "MIC (Combo as F/DP/SM; second compound as DP/SM)", "setting": "P. mirabilis; P. mirabilis 1071120", "result": 1, "unit": "µg/mL"}, {"measurement": "MIC (Combo as F/DP/SM; second compound as DP/SM)", "setting": "P. mirabilis; P. mirabilis 1124256", "result": 64, "unit": "µg/mL"}, {"measurement": "MIC (Combo as F/DP/SM; second compound as DP/SM)", "setting": "P. mirabilis; P. mirabilis 1128681", "result": 4, "unit": "µg/mL"}, {"measurement": "MIC (Combo as F/DP/SM; second compound as DP/SM)", "setting": "P. mirabilis; P. mirabilis 1184042", "result": 4, "unit": "µg/mL"}, {"measurement": "MIC (Combo as F/DP/SM; second compound as DP/SM)", "setting": "N. gonorrhoeae; N. gonorrhoeae 127781", "result": 16, "unit": "µg/mL"}, {"measurement": "MIC (Combo as F/DP/SM; second compound as DP/SM)", "setting": "N. gonorrhoeae; N. gonorrhoeae 127782", "result": 16, "unit": "µg/mL"}, {"measurement": "MIC (Combo as F/DP/SM; second compound as DP/SM)", "setting": "N. gonorrhoeae; N. gonorrhoeae 127783", "result": 16, "unit": "µg/mL"}, {"measurement": "MIC (Combo as F/DP/SM; second compound as DP/SM)", "setting": "N. gonorrhoeae; N. gonorrhoeae 127786", "result": 16, "unit": "µg/mL"}, {"measurement": "MIC (Combo as F/DP/SM; second compound as DP/SM)", "setting": "N. gonorrhoeae; N. gonorrhoeae 1117522", "result": 16, "unit": "µg/mL"}, {"measurement": "MIC (Combo as F/DP/SM; second compound as DP/SM)", "setting": "N. gonorrhoeae; N. gonorrhoeae 1117523", "result": 16, "unit": "µg/mL"}, {"measurement": "MIC (Combo as F/DP/SM; second compound as DP/SM)", "setting": "N. gonorrhoeae; N. gonorrhoeae 1117524", "result": 8, "unit": "µg/mL"}, {"measurement": "MIC (Combo as F/DP/SM; second compound as DP/SM)", "setting": "N. gonorrhoeae; N. gonorrhoeae 1117525", "result": 8, "unit": "µg/mL"}, {"measurement": "MIC (Combo as F/DP/SM; second compound as DP/SM)", "setting": "N. gonorrhoeae; N. gonorrhoeae 1117527", "result": 8, "unit": "µg/mL"}, {"measurement": "MBC, lowest concentration providing a >3-log reduction within 24 hours (Combo as F/DP/SM; second compound as DP/SM)", "setting": "Enterococcus faecalis [2]; [3]", "result": "≥512", "unit": "μg/ml"}, {"measurement": "MBC, lowest concentration providing a >3-log reduction within 24 hours (Combo as F/DP/SM; second compound as DP/SM)", "setting": "Enterococcus faecalis [2]; [4]", "result": "≥512", "unit": "μg/ml"}, {"measurement": "MBC, lowest concentration providing a >3-log reduction within 24 hours (Combo as F/DP/SM; second compound as DP/SM)", "setting": "Enterococcus faecalis [2]; Enterococcus faecalis (MGH-06)", "result": 512, "unit": "μg/ml"}, {"measurement": "MBC, lowest concentration providing a >3-log reduction within 24 hours (Combo as F/DP/SM; second compound as DP/SM)", "setting": "Escherichia coli; Escherichia coli (854535)", "result": 256, "unit": "μg/ml"}, {"measurement": "MBC, lowest concentration providing a >3-log reduction within 24 hours (Combo as F/DP/SM; second compound as DP/SM)", "setting": "Escherichia coli; Escherichia coli (928017)", "result": 256, "unit": "μg/ml"}, {"measurement": "MBC, lowest concentration providing a >3-log reduction within 24 hours (Combo as F/DP/SM; second compound as DP/SM)", "setting": "Escherichia coli; Escherichia coli (ATCC 25922)", "result": 32, "unit": "μg/ml"}, {"measurement": "MBC, lowest concentration providing a >3-log reduction within 24 hours (Combo as F/DP/SM; second compound as DP/SM)", "setting": "Pseudomonas aeruginosa; Pseudomonas aeruginosa (924190)", "result": ">512", "unit": "μg/ml"}, {"measurement": "MBC, lowest concentration providing a >3-log reduction within 24 hours (Combo as F/DP/SM; second compound as DP/SM)", "setting": "Pseudomonas aeruginosa; Pseudomonas aeruginosa (985543)", "result": 512, "unit": "μg/ml"}, {"measurement": "MBC, lowest concentration providing a >3-log reduction within 24 hours (Combo as F/DP/SM; second compound as DP/SM)", "setting": "Staphylococcus aureus; Staphylococcus aureus (918019 - MRSA)", "result": 128, "unit": "μg/ml"}, {"measurement": "MBC, lowest concentration providing a >3-log reduction within 24 hours (Combo as F/DP/SM; second compound as DP/SM)", "setting": "Staphylococcus aureus; Staphylococcus aureus (959797 - MRSA)", "result": 64, "unit": "μg/ml"}, {"measurement": "MBC, lowest concentration providing a >3-log reduction within 24 hours (Combo as F/DP/SM; second compound as DP/SM)", "setting": "Staphylococcus aureus; Staphylococcus aureus (ATCC 29213 - MSSA)", "result": 128, "unit": "μg/ml"}, {"measurement": "MBC, lowest concentration providing a >3-log reduction within 24 hours (Combo as F/DP/SM; second compound as DP/SM)", "setting": "Staphylococcus aureus; Staphylococcus aureus (ATCC 33591) (MRSA)", "result": 256, "unit": "μg/ml"}, {"measurement": "MBC, lowest concentration providing a >3-log reduction within 24 hours (Combo as F/DP/SM; second compound as DP/SM)", "setting": "Staphylococcus aureus; Staphylococcus aureus (MGH-04)", "result": 256, "unit": "μg/ml"}, {"measurement": "MBC, lowest concentration providing a >3-log reduction within 24 hours (Combo as F/DP/SM; second compound as DP/SM)", "setting": "Staphylococcus aureus; Staphylococcus aureus (USA-300 CDC- MRSA)", "result": 256, "unit": "μg/ml"}, {"measurement": "frequency of spontaneous mutants resistant (spontaneous mutational frequency, SMF)", "setting": "bacteria", "result": "6.33×10^−6"}, {"measurement": "MIC", "setting": "E. coli", "result": "0.5 to 2", "unit": "µg/mL"}, {"measurement": "MIC", "setting": "susceptible bacteria", "result": "≤ 64", "unit": "µg/mL"}]}
